The results in this text go back to patent US7998987B2, “Inhibitors of c-Met and uses thereof” (Vertex Pharmaceuticals Incorporated, priority 2005, dated 2011).

Chain of c-Met (P08581 25-1390): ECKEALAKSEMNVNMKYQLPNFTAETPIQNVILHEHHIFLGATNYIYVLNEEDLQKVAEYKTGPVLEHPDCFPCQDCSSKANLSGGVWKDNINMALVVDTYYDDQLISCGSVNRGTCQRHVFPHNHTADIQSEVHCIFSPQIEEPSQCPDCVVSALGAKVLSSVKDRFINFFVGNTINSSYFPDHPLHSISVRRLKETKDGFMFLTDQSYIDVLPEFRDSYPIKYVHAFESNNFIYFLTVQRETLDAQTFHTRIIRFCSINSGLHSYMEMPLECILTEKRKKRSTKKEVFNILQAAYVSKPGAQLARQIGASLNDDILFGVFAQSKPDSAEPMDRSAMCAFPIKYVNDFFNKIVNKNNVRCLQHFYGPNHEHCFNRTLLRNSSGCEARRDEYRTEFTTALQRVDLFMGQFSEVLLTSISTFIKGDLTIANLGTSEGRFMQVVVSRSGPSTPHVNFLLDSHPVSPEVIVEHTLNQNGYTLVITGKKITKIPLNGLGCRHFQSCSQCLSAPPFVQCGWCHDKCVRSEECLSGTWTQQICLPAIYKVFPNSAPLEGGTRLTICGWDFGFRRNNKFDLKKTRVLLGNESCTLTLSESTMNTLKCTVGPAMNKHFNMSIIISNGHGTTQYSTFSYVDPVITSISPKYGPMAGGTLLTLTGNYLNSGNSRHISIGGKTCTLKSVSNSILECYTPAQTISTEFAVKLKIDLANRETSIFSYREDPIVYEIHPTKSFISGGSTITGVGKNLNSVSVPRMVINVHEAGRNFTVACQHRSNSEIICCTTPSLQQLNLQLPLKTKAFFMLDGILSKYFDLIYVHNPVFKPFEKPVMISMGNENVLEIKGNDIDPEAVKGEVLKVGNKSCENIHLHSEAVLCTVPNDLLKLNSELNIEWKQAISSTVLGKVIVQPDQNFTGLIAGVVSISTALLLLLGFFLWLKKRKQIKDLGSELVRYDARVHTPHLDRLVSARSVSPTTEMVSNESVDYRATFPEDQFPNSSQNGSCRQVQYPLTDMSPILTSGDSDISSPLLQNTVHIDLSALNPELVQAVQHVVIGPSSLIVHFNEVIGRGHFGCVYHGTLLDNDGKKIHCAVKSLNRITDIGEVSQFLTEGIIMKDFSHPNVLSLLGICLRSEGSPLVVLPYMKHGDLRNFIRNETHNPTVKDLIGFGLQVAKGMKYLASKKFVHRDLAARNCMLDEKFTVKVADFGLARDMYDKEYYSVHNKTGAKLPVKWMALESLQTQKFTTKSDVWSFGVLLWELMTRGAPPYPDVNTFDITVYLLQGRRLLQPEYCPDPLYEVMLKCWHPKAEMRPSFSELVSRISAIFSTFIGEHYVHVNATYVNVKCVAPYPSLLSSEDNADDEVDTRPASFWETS

In the first test the target is c-Met (Homo sapiens, UniProt P08581). Description: Ki determination for the inhibition of c-Met kinase activity (standard coupled enzyme system). It is filed as biochemical. As to conditions: coupled enzyme system, 200 μM ATP, 80 nM c-Met, 30° C.; number printed instead of class symbol; read-out: c-Met Ki. As for the experimental part:
Ki Determination for the Inhibition of c-Met
Reactions were carried out in a solution containing 100 mM HEPES (pH 7.5), 10 mM MgCl2, 25 mM NaCl, 300 μM NADH, 1 mM DTT, and 1.5% DMSO. Final substrate concentrations in the assay were 200 μM ATP (Sigma Chemicals, St Louis, Mo.) and 10 μM polyGluTyr (Sigma Chemical Company, St. Louis). Reactions were carried out at 30° C. and 80 nM c-Met. Final concentrations of the components of the coupled enzyme system were 2.5 mM phosphoenolpyruvate, 300 μM NADH, 30 μg/ml pyruvate kinase and 10 μg/ml lactate dehydrogenase.
An assay stock buffer solution was prepared containing all of the reagents listed above with the exception of ATP and a test compound of the present invention. […] The reaction was initiated by the addition of 20 μL of ATP (final concentration 200 μM). Rates of reaction were obtained using a Molecular Devices Spectramax plate reader (Sunnyvale, Calif.) over 10 minutes at 30° C. The Ki values were determined from the rate data as a function of inhibitor concentration.
As a reminder, the Ki is a measure of affinity in units of concentration, obtained from inhibition or displacement. `COc1ccc(C2(c3nnc4ccc(Nc5cccc(Cl)c5)nn34)CC2)cc1` [Compound 356]: the Ki was 100 nM.

The same test, now with this note: coupled enzyme system, 200 μM ATP, 80 nM c-Met, 30° C.; read-out: c-Met Ki.
With `Clc1cccc(Nc2ccc3nnc(CCc4cccnc4)n3n2)c1` [Compound 368], the inhibitory constant (Ki) is over 2000 nM.

Take `Nc1cc(OCc2nnc3ccc(Nc4cccc(Cl)c4)nn23)c2ccccc2n1` [Compound 466]: the Ki was over 2000 nM.

`O=C(Cc1ccccc1)N1CCCC(Nc2ccc3nnc(Cc4ccc(O)cc4)n3n2)C1` (stereo not drawn) [Compound 328]: the Ki was over 2000 nM.

As to `Oc1ccc(C2(c3nnc4ccc(Nc5ccnc(Cl)c5)nn34)CC2)cc1` [Compound 520], the Ki was under 100 nM.

For `O=c1[nH]ccc2c1ccn2Cc1nnc2ccc(Nc3cccc(Cl)c3)nn12` [Compound 428], the inhibition constant Ki was under 100 nM.

`N#Cc1cccc(OCc2nnc3ccc(Nc4cccc(Cl)c4)nn23)c1` [Compound 471]: the inhibition constant (Ki) was over 2000 nM.

As to `C=CCc1ccccc1OCc1nnc2ccc(Nc3cccc(Cl)c3)nn12` [Compound 383], the Ki is over 2000 nM.

Take `COC[C@@H](C)Nc1ccc2nnc(Cc3ccc(O)cc3)n2n1` [Compound 304]: the Ki is 100 to 2000 nM.

Regarding `COc1ccc(Cl)cc1Nc1ccc2nnc(Cc3ccc(O)cc3)n2n1` [Compound 360], the Ki was under 100 nM.

In the case of `C[C@@H](c1ccc(O)cc1)c1nnc2ccc(Sc3nc4ccccc4[nH]3)nn12` [Compound 507], the Ki is under 100 nM.

On to `CC(=O)N[C@@H]1CCCC[C@H]1Nc1ccc2nnc([C@@H](C)c3ccc(O)cc3)n2n1` [Compound 450], for which the inhibition constant (Ki) was over 2000 nM.

Regarding `CCOC(=O)N1CCC(Nc2ccc3nnc(Cc4ccc(O)cc4)n3n2)CC1` [Compound 306], the Ki was 100 to 2000 nM.

In the case of `Clc1cccc(Nc2ccc3nnc(COc4c[nH]c5ccccc45)n3n2)c1` [Compound 491], the inhibitory constant (Ki) was over 2000 nM.

`CCOc1cccc(OCc2nnc3ccc(Nc4cccc(Cl)c4)nn23)c1` [Compound 385]: the inhibitory constant (Ki) is over 2000 nM.

Consider `Oc1cccc(OCc2nnc3ccc(Nc4cccc(Cl)c4)nn23)c1` [Compound 409], for which the inhibition constant (Ki) lay within 100 to 2000 nM.

Consider `Oc1ccc(Cc2nnc3ccc(Nc4cc(F)cc(F)c4)nn23)cc1F` [Compound 298], for which the inhibitory constant (Ki) was under 100 nM.

Still in this test, the particulars now being: coupled enzyme system, 200 μM ATP, 10 μM polyGluTyr, 80 nM c-Met, 30° C.; read-out: c-Met Ki.
On to `COc1cccc(Nc2nn3c(Cc4ccc5c(c4)OCO5)nnc3s2)c1` [Compound 34], for which the inhibition constant (Ki) was 100 to 2000 nM.

As to `Oc1ccc(Cc2nnc3sc(Nc4cccc(F)c4)nn23)cc1Cl` [Compound 97], the inhibition constant Ki is under 100 nM.

For `C[C@@H](Nc1ccc2nnc(Cc3ccc(O)cc3)n2n1)C1CCCCC1` [Compound 189], the Ki was 100 to 2000 nM.

`Cc1cccc(Nc2ccc3nnc(Cc4ccncc4)n3n2)c1` [Compound 231]: the inhibition constant (Ki) was over 2000 nM.

For the compound `Oc1ccc(Cc2nnc3ccc(N[C@@H]4CCOC4)nn23)cc1` [Compound 274], the inhibition constant (Ki) is 100 to 2000 nM.

`Oc1ccc(Cc2nnc3ccc(Nc4ccccc4)nn23)cc1` [Compound 178]: the inhibitory constant (Ki) is under 100 nM.

Turning to `Clc1ccccc1Nc1nn2c(Cc3ccc4c(c3)OCO4)nnc2s1` [Compound 68], the Ki lay within 100 to 2000 nM.

With `CC1CCCC(Nc2ccc3nnc(Cc4ccc(O)cc4)n3n2)C1C` (stereo not drawn) [Compound 270], the inhibition constant (Ki) fell in the range of 100 to 2000 nM.

`Oc1ccc(Cc2nnc3ccc(Nc4cc(F)cc(F)c4)nn23)cc1Cl` [Compound 251]: the Ki was under 100 nM.

Take `COc1ccc(Cc2nnc3ccc(Nc4cccc(F)c4)nn23)cc1` [Compound 285]: the Ki was under 100 nM.

As for `COc1ccc(Cc2nnc3ccc(Nc4cccc(C(F)(F)F)c4)nn23)cc1` [Compound 225], the Ki is 100 to 2000 nM.

Turning to `Oc1cccc(Cc2nnc3sc(Nc4cccc(F)c4Cl)nn23)c1` [Compound 110], the Ki was in the range of 100 to 2000 nM.

Turning to `Oc1ccc(Cc2nnc3sc(Nc4cccc(F)c4)nn23)cc1` [Compound 59], the Ki is under 100 nM.

In the case of `Oc1ccc(CCc2nnc3sc(Nc4cccc(Cl)c4)nn23)cc1` [Compound 94], the Ki was over 2000 nM.

Take `COc1ccccc1Nc1nn2c(Cc3ccc4c(c3)OCO4)nnc2s1` [Compound 28]: the Ki was 100 to 2000 nM.

Turning to `Clc1cccc(Nc2ccc3nnc(Cc4ccc5c(c4)OCO5)n3n2)c1` [Compound 239], the Ki is under 100 nM.
